Test results published in patent publication US20240123079A1 (Seagen Inc., priority 2021, published 2024).

Experiment: In vivo cytokine assay, plasma of Renca tumor-bearing mice
Parameters: species or system mouse; IFNg production in plasma / IL-1b production in plasma / IL-6 production in plasma / IL12p70 production in plasma / IP10 production in plasma / MIP1a production in plasma / MIP1b production in plasma / TNFa production in plasma: unit not given here
Method: Cytokines were measured in mouse plasma harvested at 3, 6, 24, or 48 hours after treatment with compounds or ADCs using a Milliplex MAP mouse cytokine/chemokine magnetic bead panel assay kit (MCYTOMAG-70k custom 11-plex kit: MCP1, MIP1α, MIP1β, TNFα, IFNγ, IL-10, IL-12p70, IL-6, IL-1β, IP10, RANTES) and analyzed using a Luminex™ MAGPIX™ Instrument System. Values that were outside of the standard curve range (<3.2 or […]) were excluded from calculation of the mean values.

In the case of CCn1nc(C)cc1C(=O)Nc1nc2cc(C(N)=O)cc(OC)c2n1C/C=C/Cn1c(NC(=O)c2cc(C)nn2CC)nc2cc(C(N)=O)cc(OCCCNC)c21 [Compound 12a], the “IFNg production in plasma” value (0.2 mg/kg, dose #1, 3 h) is reported as <3.2, the “IL12p70 production in plasma” value (0.2 mg/kg, dose #1, 3 h) is reported as <3.2 and the “IL-1b production in plasma” value (0.2 mg/kg, dose #1, 3 h) is reported as 0.7. The “IL-6 production in plasma” value (0.2 mg/kg, dose #1, 3 h) was 780.0, the “IL-10 production in plasma” value (0.2 mg/kg, dose #1, 3 h) was 15.6 and the “IP10 production in plasma” value (0.2 mg/kg, dose #1, 3 h) was 1989.6. The “MCP-1 production in plasma” value (0.2 mg/kg, dose #1, 3 h) was 333.3, the “MIP1a production in plasma” value (0.2 mg/kg, dose #1, 3 h) was 10.3 and the “MIP1b production in plasma” value (0.2 mg/kg, dose #1, 3 h) was 727.2. For the same compound, the “RANTES production in plasma” value (0.2 mg/kg, dose #1, 3 h) was <3.2, the “TNFa production in plasma” value (0.2 mg/kg, dose #1, 3 h) was 9.1 and the “IFNg production in plasma” value (0.2 mg/kg, dose #1, 6 h) was 4.6. For the same compound, the “IL12p70 production in plasma” value (0.2 mg/kg, dose #1, 6 h) was <3.2, the “IL-1b production in plasma” value (0.2 mg/kg, dose #1, 6 h) was 0.7 and the “IL-6 production in plasma” value (0.2 mg/kg, dose #1, 6 h) was 266.1. For the same compound, the “IL-10 production in plasma” value (0.2 mg/kg, dose #1, 6 h) was <3.2, the “IP10 production in plasma” value (0.2 mg/kg, dose #1, 6 h) was 8985.4 and the “MCP-1 production in plasma” value (0.2 mg/kg, dose #1, 6 h) was 7790.8. The “MIP1a production in plasma” value (0.2 mg/kg, dose #1, 6 h) was 101.9, the “MIP1b production in plasma” value (0.2 mg/kg, dose #1, 6 h) was 670.7 and the “RANTES production in plasma” value (0.2 mg/kg, dose #1, 6 h) was 130.3. For the same compound, the “TNFa production in plasma” value (0.2 mg/kg, dose #1, 6 h) was 8.1, the “IFNg production in plasma” value (0.2 mg/kg, dose #1, 24 h) was <3.2 and the “IL12p70 production in plasma” value (0.2 mg/kg, dose #1, 24 h) was <3.2. For the same compound, the “IL-1b production in plasma” value (0.2 mg/kg, dose #1, 24 h) was 3.2, the “IL-6 production in plasma” value (0.2 mg/kg, dose #1, 24 h) was 4.1 and the “IL-10 production in plasma” value (0.2 mg/kg, dose #1, 24 h) was <3.2. The “IP10 production in plasma” value (0.2 mg/kg, dose #1, 24 h) was 257.9, the “MCP-1 production in plasma” value (0.2 mg/kg, dose #1, 24 h) was 53.0 and the “MIP1a production in plasma” value (0.2 mg/kg, dose #1, 24 h) was <3.2. The “MIP1b production in plasma” value (0.2 mg/kg, dose #1, 24 h) was <3.2, the “RANTES production in plasma” value (0.2 mg/kg, dose #1, 24 h) was 3.2 and the “TNFa production in plasma” value (0.2 mg/kg, dose #1, 24 h) was 3.2. The “IFNg production in plasma” value (0.2 mg/kg, dose #1, 48 h) was <3.2, the “IL12p70 production in plasma” value (0.2 mg/kg, dose #1, 48 h) was <3.2 and the “IL-1b production in plasma” value (0.2 mg/kg, dose #1, 48 h) was 0.7. For the same compound, the “IL-6 production in plasma” value (0.2 mg/kg, dose #1, 48 h) was 5.6, the “IL-10 production in plasma” value (0.2 mg/kg, dose #1, 48 h) was <3.2 and the “IP10 production in plasma” value (0.2 mg/kg, dose #1, 48 h) was 172.8. For the same compound, the “MCP-1 production in plasma” value (0.2 mg/kg, dose #1, 48 h) was 56.8, the “MIP1a production in plasma” value (0.2 mg/kg, dose #1, 48 h) was 10.3 and the “MIP1b production in plasma” value (0.2 mg/kg, dose #1, 48 h) was <3.2. The “RANTES production in plasma” value (0.2 mg/kg, dose #1, 48 h) was <3.2, the “TNFa production in plasma” value (0.2 mg/kg, dose #1, 48 h) was 4.3 and the “IFNg production in plasma” value (0.2 mg/kg, dose #2, 6 h) was 16.5. The “IL12p70 production in plasma” value (0.2 mg/kg, dose #2, 6 h) was <3.2, the “IL-1b production in plasma” value (0.2 mg/kg, dose #2, 6 h) was 2.7 and the “IL-6 production in plasma” value (0.2 mg/kg, dose #2, 6 h) was 410.9. For the same compound, the “IL-10 production in plasma” value (0.2 mg/kg, dose #2, 6 h) was 1.2, the “IP10 production in plasma” value (0.2 mg/kg, dose #2, 6 h) was >10000 and the “MCP-1 production in plasma” value (0.2 mg/kg, dose #2, 6 h) was 5244.6. For the same compound, the “MIP1a production in plasma” value (0.2 mg/kg, dose #2, 6 h) was 104.9, the “MIP1b production in plasma” value (0.2 mg/kg, dose #2, 6 h) was 718.6 and the “RANTES production in plasma” value (0.2 mg/kg, dose #2, 6 h) was 133.8. The “TNFa production in plasma” value (0.2 mg/kg, dose #2, 6 h) was 10.0, the “IFNg production in plasma” value (0.6 mg/kg, dose #1, 3 h) was <3.2 and the “IL12p70 production in plasma” value (0.6 mg/kg, dose #1, 3 h) was <3.2. For the same compound, the “IL-1b production in plasma” value (0.6 mg/kg, dose #1, 3 h) was 0.7, the “IL-6 production in plasma” value (0.6 mg/kg, dose #1, 3 h) was 1899.7 and the “IL-10 production in plasma” value (0.6 mg/kg, dose #1, 3 h) was 30.4. For the same compound, the “IP10 production in plasma” value (0.6 mg/kg, dose #1, 3 h) was 4826.2, the “MCP-1 production in plasma” value (0.6 mg/kg, dose #1, 3 h) was 1547.8 and the “MIP1a production in plasma” value (0.6 mg/kg, dose #1, 3 h) was 251.5. The “MIP1b production in plasma” value (0.6 mg/kg, dose #1, 3 h) was 2471.0, the “RANTES production in plasma” value (0.6 mg/kg, dose #1, 3 h) was 20.1 and the “TNFa production in plasma” value (0.6 mg/kg, dose #1, 3 h) was 21.0. The “IFNg production in plasma” value (0.6 mg/kg, dose #1, 6 h) was 18.3, the “IL12p70 production in plasma” value (0.6 mg/kg, dose #1, 6 h) was 3.1 and the “IL-1b production in plasma” value (0.6 mg/kg, dose #1, 6 h) was 5.7. For the same compound, the “IL-6 production in plasma” value (0.6 mg/kg, dose #1, 6 h) was 424.0, the “IL-10 production in plasma” value (0.6 mg/kg, dose #1, 6 h) was 3.8 and the “IP10 production in plasma” value (0.6 mg/kg, dose #1, 6 h) was 8828.3. The “MCP-1 production in plasma” value (0.6 mg/kg, dose #1, 6 h) was 12898.6, the “MIP1a production in plasma” value (0.6 mg/kg, dose #1, 6 h) was 137.2 and the “MIP1b production in plasma” value (0.6 mg/kg, dose #1, 6 h) was 1050.0. The “RANTES production in plasma” value (0.6 mg/kg, dose #1, 6 h) was 255.0, the “TNFa production in plasma” value (0.6 mg/kg, dose #1, 6 h) was 15.6 and the “IFNg production in plasma” value (0.6 mg/kg, dose #1, 24 h) was <3.2. For the same compound, the “IL12p70 production in plasma” value (0.6 mg/kg, dose #1, 24 h) was <3.2, the “IL-1b production in plasma” value (0.6 mg/kg, dose #1, 24 h) was 1.6 and the “IL-6 production in plasma” value (0.6 mg/kg, dose #1, 24 h) was 6.1. For the same compound, the “IL-10 production in plasma” value (0.6 mg/kg, dose #1, 24 h) was <3.2 and the “IP10 production in plasma” value (0.6 mg/kg, dose #1, 24 h) was 381.8.
